Reference: US7601739B2, “Compounds having antiestrogenic and tissue selective estrogenic properties, and compounds with anti-androgenic properties for treatment of prostate cancer and androgen receptor dependent diseases” (Virgina Commonwealth University, priority 2006, dated 2009)

Legend:
MCF-7 cells = assay: hERα positive breast cancer cell proliferation assay; type: cell-based, human; conditions: for activity at 5 µM: Homo sapiens, MCF7, 72 h, MCF-7 cells, DMSO = 1, read-out: Relative Cancer Cell Proliferation Effects at 5 μM
Method: MCF-7 or MDA-MB-231 cells were inoculated into 12-well culture plates at 10000 cells in 2 ml maintained medium per well. Cells were allowed to attach to the bottom for 24 hrs incubation, then the seeding medium was removed and replaced by the experimental medium (phenol red-free DMEM supplemented with 5% charcoal-stripped fetal bovine serum and Penicillin (100 unit/ml)/Streptomycin ([…])). After 24 hr incubation, the test molecules dissolved in DMSO were added in the wells. […] The culture was continued for 3 days and the medium and tested compounds were replaced every two days. The final cell numbers were estimated with CellTiter proliferation assay kit (Promega, Madison, Wis.) by measuring the absorbance at 570 nm, which is directly proportional to the number of living cells in the culture.
MCF-7 cell line was used to perform this assay and the description of this assay as mentioned above. […] DMSO was used as reference.

hERα = molecular target: T1, hERα (Homo sapiens, UniProt P03372); assay: Transient transfection reporter assay for hERα in MCF-7 cells; type: cell-based; design: Relative Estrogenic Activity: dose or concentration left out as unconfirmed; conditions: for Relative Estrogenic Activity: MCF-7 cells transfected with hERα, DMSO set as 1; for estrogenic effect: MCF-7 cells, hERα, compared with DMSO and tamoxifen; for Relative Antiestrogenic Activity at 2.5 μM: with 1 nM estradiol, 1 nM E2 used as reference (1); for antiestrogenic / inhibition activity: against 1 nM estrogen
T1 construct: mammalian expression plasmid containing full length human ER cDNA, pCMV-hER; expressed in transfected cells; host or cells: MCF-7 human breast cancer cells
T1 sequence (P03372 1-595): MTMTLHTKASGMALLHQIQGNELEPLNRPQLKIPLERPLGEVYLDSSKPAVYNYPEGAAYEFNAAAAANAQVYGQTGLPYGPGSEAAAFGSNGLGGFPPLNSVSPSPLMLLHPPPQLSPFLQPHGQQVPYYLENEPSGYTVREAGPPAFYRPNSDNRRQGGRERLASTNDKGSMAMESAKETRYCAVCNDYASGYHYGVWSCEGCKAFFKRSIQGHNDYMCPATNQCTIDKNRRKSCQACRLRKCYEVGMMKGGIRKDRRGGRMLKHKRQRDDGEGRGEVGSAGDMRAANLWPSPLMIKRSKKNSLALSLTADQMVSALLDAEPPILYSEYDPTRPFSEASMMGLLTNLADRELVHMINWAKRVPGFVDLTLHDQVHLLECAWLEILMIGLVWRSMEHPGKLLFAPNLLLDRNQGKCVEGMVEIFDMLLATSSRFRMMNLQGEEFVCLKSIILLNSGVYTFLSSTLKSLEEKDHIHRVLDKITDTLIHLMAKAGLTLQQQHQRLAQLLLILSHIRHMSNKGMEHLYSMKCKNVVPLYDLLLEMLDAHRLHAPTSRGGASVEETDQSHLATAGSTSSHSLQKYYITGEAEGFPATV
Method: For the transient transfection reporter assays, the cells were plated in triplicate in 12-well plates at a density of 300000 cells/well in the phenol red-free DMEM (GIBCO/BRL, Grand Island, N.Y.) supplemented with 10% charcoal-stripped fetal bovine serum (Hyclone, Logan, Utah), Penicillin (100 unit/ml)/Streptomycin ([…]), 2 mML-glutamine and 1 mM sodium Pyruvate. 24 hrs later, the cells were transfected with three plasmids by using Superfect transfection kit (Qiagen, Valencia, Calif.). For the detection of hER activity, cells were transfected with 2 g hER expression plasmid (pCMV-ER ), 6 g luciferase reporter plasmid containing estrogen receptor response element (PGL-TATA-Luc), and 600 ng normalization control, β-galactosidase reporter plasmid (pCMV ). For the detection of hER activity, cells were transfected with 3 ug hER expression plasmid (pcDNA3.1-hER), 6 g luciferase reporter plasmid containing estrogen receptor response element (PGL-TATA-Luc), and 600 ng pCMV. For determining the influence of ER's major coactivator in breast, AIB 1, 2 g pcDNA3.1-AIB1 was added into the transfection plasmid solution mentioned previously.
The transfected cells were rinsed with PBS and treated with various concentrations of test molecules and one […] (vehicle, DMSO or methanol) in phenol red-free culture medium. After incubation for further 24 hrs, the cells were washed with PBS and lysed with lysis buffer (Pierce, Rockford, Ill.). The lysate was used to determine the luciferase activity for ER's activity and the β-galactosidase activity for the normalization of transfection efficiency.
For the luciferase activity assay, 20 μl of lysate and 100 μl luciferase assay buffer (Promega, Madison, Wis.) were added into a well of 96-well plate. The luminescence was detected by using luminescence microplate reader, LumiCount (Packard, Boston, Mass.). For the β-galactosidase activity assay, […] β-galactosidase assay buffer (Clontech, Palo Alto, Calif.) were added into a well of 96-well plate. The β-galactosidase activity was measured as luminescence strength by using luminescence microplate reader, LumiCount (Packard, Boston, Mass.). The normalized reporter activity was calculated by the luciferase activity divided by that of β-galactosidase.
The transient transfection reporter assay was used to determine the estrogenic or antiestrogenic activity of tested compounds in employed human breast cancer cells, MCF-7 cells that are cotransfected with hERα expression and reporter plasmids. […] […] The estrogenic (antiestrogenic) activity was determined by dividing the luciferase activity by the β-galactosidase activity. To determine the influence of estrogen receptor's major coactivator in breast cancer, AIB1, for the compounds' estrogenic activity, the expression vector of AIB1 was additionally cotransfected with the plasmids mentioned above.

Row | Relative Estrogenic Activity (hERα) | estrogenic effect (hERα) | Relative Antiestrogenic Activity at 2.5 μM (hERα) | antiestrogenic / inhibition activity (hERα) | Structure (SMILES) | inhibition effects against MCF-7 cell proliferation (MCF-7 cells) | activity at 5 µM (MCF-7 cells) [%] | inhibition of MCF-7 cell proliferation (MCF-7 cells; relative to DMSO) [%]
1 | 0.78 | do not exert any estrogenic effects | 0.79 |  | CCCCNC(=O)CCCCCCCCCCOCC1Cc2ccccc2CN1C(=O)c1cccc(OC)c1 (centres unmarked) [Compound 4] | slightly lower inhibition effects than compound 6 | 70 | 
2 | 1.03 | do not exert any estrogenic effects | 0.44 | strongest inhibition activity | CCCCNC(=O)CCCCCCCCCCOCC1Cc2ccccc2CN1C(=O)c1cccc(O)c1 (centres unmarked) [Compound 6] | strongest inhibition effects | 62 | 38
3 | 2.05 | highest estrogenic effect | 0.76 | moderate antiestrogenic activity | CCCCNC(=O)CCCCCCCCCCOCC1Cc2ccccc2CN1C(=O)c1ccc(O)cc1 (centres unmarked) [Compound 7] |  | 95 | 
